The subject of one series is STAT3. Kind of series: STAT3 phosphorylation in NHEK (Western blot). In kind it is cell-based, human. On the procedure:
For STAT3 and MAPK phosphorylation, NHEK were stimulated for 15 min in the presence of the indicated cytokine. Cells were lysed in SDS sample buffer (62.5 mM Tris-HCl pH 6.8, 2% SDS, 10% glycerol, 50 mM DTT, 0.1% bromophenol blue), sonicated and then submitted to SDS-PAGE and transferred onto an Immobilon membrane. The membranes were subsequently incubated overnight with the primary antibody, before being incubated with the appropriate peroxidase-labelled secondary antibody for 60 min. The reaction was visualized by chemiluminescence according to the manufacturer's instructions. Membranes were stripped in 0.1 M glycine pH 2.8 for 2 h and neutralized in 1 M Tris-HCl pH 7.6 before reblotting. For neutralizing experiments, NHEK were incubated with the appropriate antibodies for 2 h before stimulation.
Background: Immunoblotting shows a protein as a band on a membrane.

Series [1] has as its system NHEK. Kind of series: Chemokine production by NHEK (ELISA), OSM. It is filed as cell-based, human. The conditions noted are these: 48 h NHEK under OSM stimulation. On the procedure: IL-1beta, IL-6, IL-8, IL-10, IL-12p70, TNF alpha, ENA-78, MIP 3 beta were measured by specific ELISA in 48 h NHEK culture supernatants. Cells were cultured in the presence or not of OSM. Dose-response (0.4 to 25 ng/ml) and kinetic (6 to 96 h) studies of ENA78 production were also performed.
Background: ELISA stands for enzyme-linked immunosorbent assay.

The subject of another series is RHE. Kind of series: KDM mRNA in reconstituted human epidermis (RT-PCR). It is filed as cell-based. The conditions noted are these: 24 h. On the procedure:
(§1) Normal human epidermal keratinocytes (NHEK) were obtained as previously described, from surgical samples of healthy breast skin (Boniface et al, 2005). NHEK were cultured to 80% of confluence allowing the expression of a large panel of keratinocyte differentiation markers, and then starved for 24 h in Keratinocyte SFM containing 0.03 mM Ca^2+ (Invitrogen Life Technologies, Cergy Pontoise, France) before stimulation. Confluent differentiated cells were stimulated with or without recombinant IL-17A, OSM, TNFα, IL-22 and IL-1α alone at maximum effective concentrations (reported previously around 10 ng/ml (Boniface et al, 2005 and Boniface et al, 2007)) or in combination (R&D systems Europe, Lille, France) during 2 h to 72 h for mRNA quantification. RHE were generated on polycarbonate culture inserts, from surgical samples of paediatric foreskins as previously described (Guenou et al., 2009). RHE were stimulated with or without recombinant IL-17A, OSM, TNFα, IL-22 and IL-1α alone or in combination, with or without a Janus protein Tyrosine Kinases (JAKs) inhibitor 10 μM (Calbiochem, 420099), during 24 h for mRNA quantification or during 72 h for immunohistological analysis.
(§2) NHEK, RHE and murine skin total RNA were isolated using NucleoSpin® RNA II kit (Macherey-Nagel, Hoerdt, France) and reverse-transcribed with SuperScript® II Reverse Transcriptase (Invitrogen Life Technologies) according to the manufacturer's instructions. Quantitative real time PCR was carried out using the LightCycler-FastStart DNA Master SYBR® Green I kit on LightCycler 480 (Roche Diagnostics, Meylan, France). The reaction components were 1×DNA Master Mix, and 0.5 μM of HPLC purified sense and anti-sense oligonucleotides purchased from Eurogentec (Eurogentec France, Angers, France), designed using Primer3 software. The stability of the housekeeping gene expression has been assessed by using GeNorm algorithm. […] Thus samples were normalized to G3PDH housekeeping gene and reported according to the ΔΔCT method as RNA fold increase: 2^ΔΔCT=2^ΔCT sample−ΔCT reference.

In series [2] the test system is NHEK. Kind of series: Keratinocyte differentiation marker (KDM) mRNA in NHEK (RT-PCR). In kind it is cell-based, human. The conditions noted are these: 24 h. On the procedure:
as §1, §2

For series [3], the system named is reconstituted human epidermis (RHE). Nature of the series: Gene expression profiling of RHE using cDNA macroarrays. In kind it is cell-based. The conditions noted are these: 10 ng/ml OSM 24 h. On the procedure: Total RNA was isolated as described for PCR studies. DNase treatment, polyA^+ RNA enrichment, ^33P-labelled cDNA probe synthesis, purification and hybridization to custom Atlas array membranes (Bernard, Pedretti et al. 2002) were performed according to Clontech's recommendations (Clontech, Palo Alto, USA). Membranes were exposed for 5 days to a Molecular Dynamics Storm storage screen and scanned using a phosphorimager scanner (Molecular Dynamics Storm analyser, Amersham Biosciences, Uppsala, Sweden). After local background substraction, average signal intensity from duplicate spots was normalized for differences in probe labelling using the values obtained for housekeeping genes (Bernard et al., 2002). For each gene, the OSM-induced modulation was expressed as the relative expression value for stimulated versus control sample. Arbitrarily, only modulation above 2 was considered significant for confirmation using RT-real time PCR assay.
For gene expression profiling using cDNA macroarrays, 17 days old RHE were grown for 1 day in SkinEthic maintenance medium prior to stimulation in the absence or presence of OSM for 24 h. Total RNA was isolated and cDNA arrays were performed as described above.

Series [4] deals with NHEK. Nature of the series: RT-real time PCR of S100 mRNA in cytokine-stimulated NHEK. In kind it is cell-based, human. On the procedure:
Quantitative real time PCR was carried out using the LightCycler-FastStart DNA Master^PLUS SYBR Green I kit (Roche, Mannheim, Germany). The reaction components were 1× FastStart DNA Master^PLUS SYBR Green I and 0.5 μM of forward and reverse primers for S100A7 (forward 5′-[…]-3′ (SEQ ID No: 9) and reverse 5′-[…]-3′ (SEQ ID No: 10)), S100A8 (Pattyn, Speleman et al. 2003), S100A9 (forward 5′-[…]-3′ (SEQ ID No: 11) and reverse 5′-[…]-3′ (SEQ ID No: 12)), hBD2/4 (forward 5′-[…]-3′ (SEQ ID No: 13) and reverse 5′-[…]-3′ (SEQ ID No: 14)), KRT10 (forward 5′-[…]-3′ (SEQ ID No: 15) and reverse 5′-[…]-3′ (SEQ ID No: 16)), and hydroxymethyl-bilane synthase (HMBS) as a housekeeping gene (Vandesompele, De Preter et al. 2002). After cDNA fluorescent quantification using propidium iodide, 250 ng, 25 ng and 2.5 ng of cDNA were added as PCR template in the LightCycler glass capillaries. The cycling conditions comprised a 10 min polymerase activation at 95° C. and 50 cycles at 95° C. for 10 s, 64° C. for 5 s and 72° C. for 18 s with a single fluorescence measurement. […] A mathematical model was used to determine the relative quantification of target genes compared to HMBS reference gene (Pfaffl 2001).
Background: Quantitative PCR measures a nucleic acid by following its amplification.

Here are results for one substance from patent publication US10080779B2, “Method for increasing the expression of anti-microbial peptides by keratinocytes comprising administering a composition comprising IL-17, TNF-alpha and OSM” (Universite D'Angers, priority 2004, dated 2018).

For the substance “OSM: human recombinant oncostatin M, cytokine of the IL-6 family”, the “STAT3 tyrosine phosphorylation (P-STAT3)” value in the series with STAT3 (NHEK stimulated 15 min with the cytokine) was “strong induction of tyrosine phosphorylation”. In addition, the “OSM concentration down to which plateau P-STAT3 level is still present” value in the series on STAT3 (NHEK, 15 min) was no less than 3 ng/mL. Also, the “Production of chemokines CXCL5 and CXCL8” value with NHEK [1] is on record as “clearly enhanced”. Also, in the series on RHE, the “Expression of KDM mRNA (CK10, CK1, LOR, FLG)” value was “most active cytokines” and the “S100A7 mRNA expression” value was “strongly induced”. In the series with NHEK [2], the “Rank as contributor to keratinocyte differentiation inhibition (removal from M5)” value is reported as “most potent cytokines for keratinocyte differentiation inhibition”. Also, the “mRNA expression of CK1, DSG1, DSC1, FLG, CLSP, LOR and FABPS” value in the series with NHEK [2] (single cytokines 10 ng/ml) is reported as “downregulate mRNA expression”. In addition, the “S100A7, S100A8, S100A9 and S100 neutrophil protein gene expression” value in series [3] is “strongly up-regulated”. Moreover, the “Time at which S100A7 mRNA increase starts” value with NHEK [4] (10 ng/ml OSM) worked out at 12 h. The “psoriasin/S100A7 mRNA induction above the control value” in the series with NHEK [4] (10 ng/ml OSM, 96 h) is “about 290 folds”. The “OSM concentration at which plateau of S100A7 mRNA is reached” value in the series with NHEK [4] (48-h treatment) was 6.3 ng/mL. Besides, the “psoriasin/S100A7 mRNA increase above control at plateau” value in the series with NHEK [4] (48-h treatment, 6.3 ng/ml OSM) is listed as “fifty fold increase”.
